Experiments:
[1] = system: RSV-A2; experiment: Pre-incubation of HEp-2 cells with HMOs before RSV-A2 infection (Viral ToxGlo); assay type: cell-based, respiratory syncytial virus
Description: To assess the effect of mixtures of HMOs on a negative-sense single-stranded RNA virus in vitro infection assays were performed with RSV-A2 strain. Pre-incubation of either HEp-2 cells or RSV-A2 with HMOs prior to infection was compared to assess anti-viral activity. Hep2 cells were exposed to the following conditions as discussed in more detail separately: • I. Pre-incubation of HEp-2 cells with HMOs before viral infection. • II.
HEp-2 cells were seeded in white [Greiner 655098]96 well plates in assay medium (EMEM [Sigma M2279]) supplemented with 2% heat-inactivated fetal bovine serum (HI-FBS) [Gibco 10500064], 1% Penicillin/streptomycin [Gibco 15140122] and 1% L-glutamine [Gibco 25030024] and incubated at 37° C. and 5% CO2 for 5 hours.
HMO mixtures were prepared in sterile water and ribavirin (compound that blocks viral RNA synthesis and viral mRNA capping) was prepared in 1% DMSO at 10× test concentration in a round-bottom 96-well plate [Corning 3788], then serially diluted 2-fold.
The following compounds were assessed for their capacity to inhibit RSV-A2 viral infection: • 2′-FL • A mixture of GOS:FOS at a 9:1 weight ratio • Total HMOs • Mixture of 5 HMOs • Mixture of 19 HMOs • 6′-SL
Test compounds were subsequently transferred to the HEp-2 cell plates. Additional assay medium was added to ensure a final HMO concentration range of 0.13-16 mg/mL. Cell plates were incubated for 24 hours at 37° cand 5% CO2.
After 24-hour incubation with the test conditions RSV-A2 was added to the HMO containing HEp-2 cell plates to achieve a final multiplicity of infection [MOI] of 0.5. Cell plates were incubated for a further 72 hours at 37° C. and 5% CO2.
Viral ToxGlo™ [Promega G8943] was added to the plates to assess cell metabolism following viral infection and HMO treatment. After 20 minutes incubation, luminescence of each plate was measured on a spectrophotometer. Data were analysed using GraphPad Prism software to determine the concentration effective in producing 50% of viral inhibition expressed as ECso values for ribavirin and HMOs where relevant.

[2] = system: RSV-A2; experiment: Pre-incubation of RSV-A2 with HMOs prior to infection of HEp-2 cells (Viral ToxGlo); assay type: cell-based, respiratory syncytial virus
[3] = system: SARS-CoV2 WA1; assay type: cell-based; details: virus pre-incubated 1 h with 0.5-16 mg/mL; MOI 0.1; 48 h; FIG. 1
[4] = system: IL-8 secretion of HT-29 cells; experiment: IL-8 secretion and viability of HT-29 cells pre-incubated with test compounds and challenged with Lyovec-complexed Poly I:C; assay type: cell-based, Human
[5] = system: rotavirus (RV) strain SA11; experiment: Caco-2 epithelial barrier model infected with rotavirus SA11 (TEER, lucifer yellow permeability); assay type: cell-based; details: Caco-2, 5% (50 mg/ml) for 4 h before SA11 MOI 0.1; 20 h p.i.; FIG. 2A

Row | SMILES | Maximum viral inhibition (%) ([1]; HEp-2 cells pre-incubated 24 h, 0.13-16 mg/mL, RSV-A2 MOI 0.5, 72 h) | Test concentration maximum viral inhibition ([1]; HEp-2 cells pre-incubated 24 h, concentration at which the maximum inhibition was seen) [mg/mL] | anti-viral activity, replicate 1 (in words) ([1]; HEp-2 pre-incubation, replicate 1 (67% infection)) | Maximum viral inhibition (%) ([2]; RSV-A2 pre-incubated 1 h, 0.13-16 mg/mL, MOI 0.5, 72 h) | Test concentration maximum viral inhibition ([2]; RSV-A2 pre-incubated 1 h, concentration at which the maximum inhibition was seen) [mg/mL] | antiviral activity (in words) ([2]; RSV-A2 pre-incubated prior to infection, both replicates (94-95% infection)) | viral neutralization efficacy (viral RNA by RT-qPCR) [3] | Mean IL-8 secretion ([4]; 0.1% + Poly I:C, Poly I:C alone 21799.28) [pg/mL] | Mean IL-8 secretion ([4]; 0.1%, no Poly I:C, Medium 359.54) [pg/mL] | prevention of rotavirus induced decrease in TEER [5]
1 | CC(=O)N[C@H]1[C@H]([C@H](O)[C@H](O)CO)O[C@@](OC[C@H]2O[C@@H](O[C@H]3[C@H](O)[C@@H](O)[C@H](O)O[C@@H]3CO)[C@H](O)[C@@H](O)[C@H]2O)(C(=O)O)C[C@@H]1O [6′-SL, 6′-sialyllactose] | 2.6 | 8 | no anti-viral activity | −0.58 | 1 | no anti-viral activity | did not show viral neutralization efficacy | – | – | –
2 | O=C[C@H](O)[C@@H](O)[C@H](O[C@@H]1O[C@H](CO)[C@@H](O)[C@H](O)[C@H]1O)[C@H](O)CO [Cellobiose, cellobiose] | – | – | – | – | – | – | – | 20023.80 | 277.94 | no effect
